{
  "source": "paper PMC9246774",
  "about": "“Construction and Functional Evaluation of a Three-Dimensional Blood–Brain Barrier Model Equipped With Human Induced Pluripotent Stem Cell-Derived Brain Microvascular Endothelial Cells” (Pharmaceutical Research, 2022)",
  "key": {"hiPS-BMECs [1]": {"test_system": "hiPS-BMECs", "test": "Permeability experiments in the 3D-BBB system (hiPS-BMECs on OrganoPlate 3-lane)", "method": "(§1) The 3D-BBB system using the OrganoPlate® 3-lane plate was constructed with some modifications to the protocol published by MIMETAS. During the differentiation of hiPS-BMECs, to separate the capillary side from the brain side, extracellular matrix hydrogel composed of 4 mg/mL collagen I (Cultrex 3D Matrix Rat Collagen-I, 5 mg/mL, AMSbio), 100 mM HEPES, and 3.7 mg/mL NaHCO3 was dispensed into the middle lane. The plate was incubated at 37°C for 15 min to polymerize collagen I. After incubation, HBSS (+) without phenol red (Fujifilm Wako) was added to the gel channel to prevent the gel from drying out. […] The suspension was injected into capillary lanes precoated with fibronectin/collagen IV solution (PharmCo-Cell). After seeding the cells, the plate was incubated for 4 h at a tilt to allow the cells to adhere to the gel. After incubation, the medium was added to the capillary channels and the plate was placed on an OrganoFlow® (MIMETAS), switching between a + 7° and − 7° inclination every 8 min to create a bidirectional flow mimicking blood flow. On day 9, the medium in the capillary channels was replaced with fresh ESFM + 1% hPDS containing 10 μM MMP inhibitor.\n(§2) Permeability experiments were performed on day 10, at 48 h after seeding hiPS-BMECs on the plate. […] The assay buffer containing test drugs was added to the donor side to initiate the assay, and the plate was then incubated on the OrganoFlow® at 37°C for the designated times. Transporter inhibitors were added to both the donor and receiver sides at the start of preincubation. In all permeability experiments, the amount of lucifer yellow transported through the paracellular pathway to the receiver side was measured with a SpectraMax i3x (Molecular Devices, San Jose, CA) as a measure of cell-to-cell tightness. The protocol for the permeability experiments, including the composition of the assay buffer, is described in detail in the Supplementary Material. The apparent permeability coefficient (Papp) was calculated as follows: Papp=(dQ/dt)/D0×S\n(§3) where dQ/dt, D0, and S are the transport velocity of the test drugs, the initial concentration of test drugs on the donor side, and the surface area of the extracellular matrix hydrogel in the middle lane, respectively. The efflux ratio value was calculated from the Papp value in the capillary-to-brain (A-to-B) and brain-to-capillary (B-to-A) directions as follows: Effluxratio=Papp,B-to-A/Papp,A-to-B.\n(§4) The test drugs were quantified using a high-performance liquid chromatography (HPLC)-tandem mass spectrometry system composed of a Nexera-XR (Shimazu, Kyoto, Japan) HPLC system connected to a Qtrap4500 (AB Sciex, Foster City, CA, USA) mass spectrometer with an electrospray ionization interface.\n(§5) On day 10, remove the medium in the capillary lane of the 3D-BBB system. After removal, 100 µL of assay buffer (50 µL in each Well ➀, ②, ⑤ and ⑥) was added to the capillary and brain lane for washing. After 30 min for washing, 100 µL of a fresh assay buffer containing the drug was added to the donor side (A-to-B direction; 50 µL in each Well ➀ and ②, B-to-A direction; 50 µL in each Well ⑤ and ⑥). In addition, 100 µL of a fresh assay buffer was added to the receiver side (A-to-B direction; 50 µL in each Well ⑤ and ⑥, B-to-A direction; 50 µL in each Well ➀ and ②). Inhibitors were added on both sides of the donor and receiver to avoid a gradient in concentration. At the designed sampling time, 50 µL of assay buffer was collected from the receiver side (A-to-B direction; 25 µL in each Well ⑤ and ⑥, B-to-A direction; 25 µL in each Well ➀ and ②), and 50 µL of a fresh assay buffer was added."}, "hiPS-BMECs [2]": {"test_system": "hiPS-BMECs", "conditions": "cited from earlier work"}, "[3]": {"test": "Permeability experiments in the 3D-BBB system (hiPS-BMECs on OrganoPlate 3-lane)", "conditions": "human", "method": "as §1, §2, §3, §4, §5"}, "MCTs": {"test_system": "MCTs", "test": "Inhibition of H+-gradient-promoted [14C] L-lactate transport in the 3D-BBB system", "format": "cell-based, human", "conditions": "20 nM AZD3965; one lane pH 6.0, opposite lane pH 7.4", "protocol": "Permeability experiments were performed on day 10, at 48 h after seeding hiPS-BMECs on the plate. After removal of the medium in the capillary channels, the assay buffer (pH 7.4) was added to both sides of the capillary and brain channels and preincubated on the OrganoFlow® for 30 min. The assay buffer containing test drugs was added to the donor side to initiate the assay, and the plate was then incubated on the OrganoFlow® at 37°C for the designated times. Transporter inhibitors were added to both the donor and receiver sides at the start of preincubation. In all permeability experiments, the amount of lucifer yellow transported through the paracellular pathway to the receiver side was measured with a SpectraMax i3x (Molecular Devices, San Jose, CA) as a measure of cell-to-cell tightness. […] The apparent permeability coefficient (Papp) was calculated as follows: Papp=(dQ/dt)/D0×S\nOn day 10, remove the medium in the capillary lane of the 3D-BBB system. After removal, 100 µL of assay buffer (50 µL in each Well ➀, ②, ⑤ and ⑥) was added to the capillary and brain lane for washing. […] At 3.5 hr after the start of permeability experiment, the transport amount of lucifer yellow on the receiver side was measured to check for leakage, and all donor and receiver were collected at 4 hr."}, "BCRP": {"test_system": "BCRP", "test": "Permeability experiments in the 3D-BBB system (hiPS-BMECs on OrganoPlate 3-lane)", "conditions": "human, pH 7.4, with Ko143 1 µM (BCRP inhibitor), Efflux ratio (B-to-A/A-to-B), + 1 μM Ko143 (BCRP inhibitor)", "method": "as §1, §2, §3, §4, §5"}, "[4]": {"test": "Permeability in the hydrogel without hiPS-BMECs (OrganoPlate 3-lane)", "format": "in vitro ADME", "conditions": "pH 7.4, upper limit of the system, data not shown"}, "[5]": {"test_system": "monkey in vitro BBB model", "parameters": "method as in PMID 34575559", "conditions": "cited from earlier work"}, "human BBB": {"test_system": "human BBB", "parameters": "method as in PMID 24947467", "conditions": "prediction for human BBB; cited from earlier work"}, "[6]": {"conditions": "pH 7.4, Efflux ratio (B-to-A/A-to-B), Control"}},
  "data": [
    {"compound": "lucifer yellow", "values": [
      {"measurement": "Block of leakage by hiPS-BMECs", "setting": "hiPS-BMECs [1]", "result": "more than 99%"},
      {"measurement": "Papp in 2D culture of hiPS-BMECs", "setting": "hiPS-BMECs [2]", "result": "0.0845 × 10^–6 cm/s"}
    ]},
    {"compound": "[14CH3][14CH](O)[14C](=O)[O-].[Na+]", "note": "[[^14C] L-Lactate, Lactic acid sodium salt, L-[^14C(U)]]", "values": [
      {"measurement": "Efflux ratio (B-to-A/A-to-B)", "setting": "hiPS-BMECs [1]; A: pH 6.0—B: pH 7.4", "result": 0.257},
      {"measurement": "Papp A-to-B", "setting": "hiPS-BMECs [1]; A: pH 6.0—B: pH 7.4", "result": "34.1 × 10^–6 cm/s"},
      {"measurement": "Papp B-to-A", "setting": "hiPS-BMECs [1]; A: pH 6.0—B: pH 7.4", "result": "8.74 × 10^–6 cm/s"},
      {"measurement": "Papp A-to-B", "setting": "hiPS-BMECs [1]; A: pH 6.0—B: pH 7.4, + 20 nM AZD3965", "result": "12.0 × 10^–6 cm/s"},
      {"measurement": "Efflux ratio (B-to-A/A-to-B)", "setting": "hiPS-BMECs [1]; A: pH 7.4—B: pH 6.0", "result": 3.07},
      {"measurement": "Papp A-to-B", "setting": "hiPS-BMECs [1]; A: pH 7.4—B: pH 6.0", "result": "7.68 × 10^–6 cm/s"},
      {"measurement": "Papp B-to-A", "setting": "hiPS-BMECs [1]; A: pH 7.4—B: pH 6.0", "result": "23.6 × 10^–6 cm/s"},
      {"measurement": "Papp B-to-A", "setting": "hiPS-BMECs [1]; A: pH 7.4—B: pH 6.0, + 20 nM AZD3965", "result": "9.60 × 10^–6 cm/s"},
      {"measurement": "Efflux ratio (B-to-A/A-to-B)", "setting": "hiPS-BMECs [1]; A: pH 7.4—B: pH 7.4", "result": 0.944},
      {"measurement": "Papp A-to-B", "setting": "hiPS-BMECs [1]; A: pH 7.4—B: pH 7.4", "result": "19.1 × 10^–6 cm/s"},
      {"measurement": "Papp B-to-A", "setting": "hiPS-BMECs [1]; A: pH 7.4—B: pH 7.4", "result": "18.1 × 10^–6 cm/s"}
    ]},
    {"compound": "NCC1(CC(=O)O)CCCCC1", "note": "[Gabapentin]", "values": [
      {"measurement": "Papp A→B at 4 h", "setting": "[3]; pH 7.4", "result": 16, "unit": "×10⁻⁶ cm/s"},
      {"measurement": "Papp B→A at 4 h", "setting": "[3]; pH 7.4", "result": 6.4, "unit": "×10⁻⁶ cm/s"},
      {"measurement": "efflux ratio at 4 h", "setting": "[3]; pH 7.4", "result": 0.401}
    ]},
    {"compound": "NC(N)=NCCC[C@H](N)C(=O)O", "note": "[[^3H] L-Arginine, Arginine, L-[2,3,4-^3H]]", "values": [
      {"measurement": "Efflux ratio (B-to-A/A-to-B)", "setting": "hiPS-BMECs [1]; Control", "result": 0.410},
      {"measurement": "Papp B-to-A", "setting": "hiPS-BMECs [1]; Control, brain-to-capillary, pH 7.4", "result": "5.77 × 10^–6 cm/s"},
      {"measurement": "Papp A-to-B", "setting": "hiPS-BMECs [1]; Control, capillary-to-brain, pH 7.4", "result": "14.1 × 10^–6 cm/s"}
    ]},
    {"compound": "Cc1[nH]nc(C(F)(F)F)c1Cc1sc2c(c1C(=O)N1C[C@](C)(O)CO1)c(=O)n(C)c(=O)n2C(C)C", "note": "[AZD3965]", "values": [
      {"measurement": "Reduction of [14C] L-lactate transport promoted by the H+-gradient", "setting": "MCTs", "result": "approximately 60%"}
    ]},
    {"compound": "Nc1nc(Cl)nc2c1ncn2[C@H]1C[C@H](O)[C@@H](CO)O1", "note": "[Cladribine]", "values": [
      {"measurement": "Papp A→B at 4 h", "setting": "[3]; pH 7.4", "result": 2.69, "unit": "×10⁻⁶ cm/s"},
      {"measurement": "Papp B→A at 4 h", "setting": "[3]; pH 7.4", "result": 15.1, "unit": "×10⁻⁶ cm/s"},
      {"measurement": "efflux ratio at 4 h", "setting": "[3]; [6]", "result": 5.6},
      {"measurement": "efflux ratio at 4 h", "setting": "BCRP", "result": 1.45},
      {"measurement": "Efflux ratio (B-to-A/A-to-B)", "setting": "hiPS-BMECs [1]; Control", "result": 5.61}
    ]},
    {"compound": "Cc1cc(=O)n(-c2ccccc2)n1C", "note": "[Antipyrine]", "values": [
      {"measurement": "Papp A→B at 4 h", "setting": "[3]; pH 7.4", "result": 33.4, "unit": "×10⁻⁶ cm/s"},
      {"measurement": "Papp B→A at 4 h", "setting": "[3]; pH 7.4", "result": 35.1, "unit": "×10⁻⁶ cm/s"},
      {"measurement": "efflux ratio at 4 h", "setting": "[3]; [6]", "result": 1.05},
      {"measurement": "Papp at 4 h", "setting": "[4]", "result": 59.2, "unit": "×10⁻⁶ cm/s"}
    ]},
    {"compound": "C=C[C@H]1C[N@@]2CC[C@H]1C[C@@H]2[C@@H](O)c1ccnc2ccc(OC)cc12", "note": "[Quinidine]", "values": [
      {"measurement": "Papp A→B at 4 h", "setting": "[3]; pH 7.4", "result": 21.6, "unit": "×10⁻⁶ cm/s"},
      {"measurement": "Papp B→A at 4 h", "setting": "[3]; pH 7.4", "result": 22.8, "unit": "×10⁻⁶ cm/s"},
      {"measurement": "efflux ratio at 4 h", "setting": "[3]; [6]", "result": 1.06},
      {"measurement": "Efflux ratio", "setting": "[5]", "result": "approximately 1.7"},
      {"measurement": "Efflux ratio", "setting": "human BBB", "result": "~13.4"}
    ]}
  ]
}
